What was measured:
MT2 = experiment: Concentration resulting in 90% inhibition of viral RNA production in HIV-1 infected MT-2 cells; format: functional; settings: Homo sapiens
[1] = biological target: Human immunodeficiency virus type 1 protease (Human immunodeficiency virus 1, UniProt Q72874); experiment: Inhibitory activity against HIV protease enzyme.

Compound	IC90 (MT2) [µM]	Ki [1] [µM]
O=C1N(Cc2cccc(Br)c2)C2CS[C@@H](CCCCCO)C2N1Cc1cccc(Br)c1 (some centres not stated)	7	0.5
O=C1N(Cc2ccccc2)C2CS[C@@H](CCCCCO)C2N1Cc1ccccc1 (some centres not stated)	46	10.3
O=C(O)CCCC[C@@H]1SCC2C1N(Cc1cccc(Br)c1)C(=O)N2Cc1cccc(Br)c1 (some centres not stated)	34	2.2
O=C1N(Cc2cccc(Br)c2)C2CS(=O)(=O)[C@@H](CCCCCO)C2N1Cc1cccc(Br)c1 (some centres not stated)	80	6.9
O=C(CCCC[C@@H]1SCC2C1N(Cc1cccc(Br)c1)C(=O)N2Cc1cccc(Br)c1)OCc1cccc(Br)c1 (some centres not stated)	45	0.68
CC(O)c1cccc(CN2C(=O)N(Cc3cccc(C(C)O)c3)C3C2CS[C@H]3CCCCCO)c1 (some centres not stated)	> 98	1.9

Continued by falling Ki [1], values first:

IC90 (MT2) [µM]	Ki [1] [µM]	Compound
> 80	4.1	COC(=O)CCCC[C@H]1C2C(CS1(=O)=O)N(Cc1cccc(Br)c1)C(=O)N2Cc1cccc(Br)c1 (some centres not stated)
26	3.7	CC(=O)c1cccc(CN2C(=O)N(Cc3cccc(C(C)=O)c3)C3C2CS[C@H]3CCCCCO)c1 (some centres not stated)
12.5	3.4	CC(=O)c1cccc(COC(=O)CCCC[C@@H]2SCC3C2N(Cc2cccc(C(C)=O)c2)C(=O)N3Cc2cccc(C(C)=O)c2)c1 (some centres not stated)
67	2.7	C/C(=N\O)c1cccc(COC(=O)CCCC[C@@H]2SCC3C2N(Cc2cccc(/C(C)=N/O)c2)C(=O)N3Cc2cccc(/C(C)=N/O)c2)c1 (some centres not stated)
44	0.58	COC(=O)CCCC[C@@H]1SCC2C1N(Cc1cccc(Br)c1)C(=O)N2Cc1cccc(Br)c1 (some centres not stated)
